Test [1] concerns the target HCC827 (Del E746-A750) (Homo sapiens, UniProt P00533, DEL746-750). The experiment in a line: EGFR target modulation in HCC827 cell line (phospho-EGFR Y1173 ELISA). It counts as cell-based. Put shortly: (§1)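 pY1173 was measured by sandwich ELISA with anti-EGFR capture and chemiluminescent read-out. Before lysis, each cell line (HCC827, H1975, H3255) was treated with compound for 3 hours. IC50 derived by non-linear fit, normalised to EGF-stimulated controls as maximum.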

The target in test [2] is H1975 (EGFR L858/T790M) (Homo sapiens, UniProt P00533, L858R/T790M). The experiment in a line: EGFR target modulation in H1975 cell line (phospho-EGFR Y1173 ELISA). It counts as cell-based. Put shortly: as §1
A general note: An ELISA detects its analyte on a solid surface through an enzyme-linked reagent.

Test [3] addresses H3255 (EGFR L858R) (Homo sapiens, UniProt P00533, L858R). The experiment in a line: EGFR target modulation in H3255 cell line (phospho-EGFR Y1173 ELISA). It counts as cell-based. Put shortly:
as §1

Test [4] deals with T1, EGFR(L858R/T790M) (Homo sapiens, UniProt P00533, L858R/T790M).
T1 construct: purchased from Carna (GST-a.a. 669-1210)
The test can be described thus: EGFR biochemical assay (HTRF), IC50 determinations. The method, boiled down:
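Two formats were run: compound preincubated at room temperature with enzyme and biotin-TK peptide before ATP starts the reaction, or no preincubation with enzyme added last. Reactions ran 60 min at room temperature and were stopped with EDTA. Phosphopeptide was read by HTRF (PT66K/SAXL, 1 h).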
A general note: Time-resolved FRET reads energy transfer from a long-lived donor to a nearby acceptor.

The target in test [5] is HaCaT (EGFR WT) (Homo sapiens, UniProt P00533). The experiment in a line: EGFR target modulation in HaCaT (EGFR-WT) cell line (phospho-EGFR Y1173 ELISA). It counts as cell-based. Conditions: value in parentheses. The method, then:
EGFR Target Modulation in HaCaT (EGFR-WT) Cell Line Tissue Culture. […] The serial diluted compounds were transferred to the plate containing cells by using a 50 nl Pin Head device (Perkin Elmer) and the cells were placed back in the incubator for 3 hours. […] Phospho-EGFR ([…]) ELISA. Solid white high-binding ELISA plates (Greiner #781074) were coated with 5 ug/ml anti-EGFR capture antibody (R&D Systems #AF231) overnight in 50 mM carbonate/bicarbonate pH 9.5 buffer. […] Wash steps were carried out with a Bio-Tek ELx405 SelectTM using 4 cycles of 100 ul TBS-T (20 mM Tris, 137 mM NaCl, 0.05% Tween-20) per well. […] Lysis was allowed to occur for 20 minutes on ice. A 25 ul aliquot was added to each well of the blocked ELISA plate and incubated overnight at 4° C. with gentle shaking. […] After washing, 1:2,000 anti-rabbit-HRP (Cell Signaling #7074) in 0.2% BSA/TBS-T was added and incubated for 1 hour at room temperature. Chemiluminescent detection was carried out with SuperSignal ELISA Pico substrate (ThermoScientific #37069). Signal was read on EnVision plate reader using built-in UltraLUM setting. Data Analysis. Control cells treated with EGF were set to 100% maximum response. […] With these parameters, the IC50's for each compound in each cell line was calculated using non-linear curve fitting analysis.

The target of test [6] is HEKn (EGFR WT) (Homo sapiens, UniProt P00533). The experiment in a line: EGFR target modulation in HEKn (EGFR-WT) cell line (phospho-EGFR Y1173 ELISA). It counts as cell-based. Particulars: value outside parentheses. Put shortly: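 Read-out was Y1173 phosphorylation, measured by chemiluminescent ELISA with anti-EGFR capture of lysates. HEKn keratinocytes (wild-type EGFR) were treated with compound for 3 h.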

The mark [7] stands for this setting: EGFR (L858R/T790M) with 90 min pre-incubation, read-out: IC50 (μM) Column B.
The mark [8] stands for this setting: EGFR (L858R/T790M) with no pre-incubation, read-out: IC50 (μM) Column A.

Molecules are shown by their SMILES. Read-outs that look alike come from different tables or passages of the source. Bounds are passed on as bounds.

Chain of HCC827 (Del E746-A750) (P00533 with tags, fused parts or gaps DEL746-750): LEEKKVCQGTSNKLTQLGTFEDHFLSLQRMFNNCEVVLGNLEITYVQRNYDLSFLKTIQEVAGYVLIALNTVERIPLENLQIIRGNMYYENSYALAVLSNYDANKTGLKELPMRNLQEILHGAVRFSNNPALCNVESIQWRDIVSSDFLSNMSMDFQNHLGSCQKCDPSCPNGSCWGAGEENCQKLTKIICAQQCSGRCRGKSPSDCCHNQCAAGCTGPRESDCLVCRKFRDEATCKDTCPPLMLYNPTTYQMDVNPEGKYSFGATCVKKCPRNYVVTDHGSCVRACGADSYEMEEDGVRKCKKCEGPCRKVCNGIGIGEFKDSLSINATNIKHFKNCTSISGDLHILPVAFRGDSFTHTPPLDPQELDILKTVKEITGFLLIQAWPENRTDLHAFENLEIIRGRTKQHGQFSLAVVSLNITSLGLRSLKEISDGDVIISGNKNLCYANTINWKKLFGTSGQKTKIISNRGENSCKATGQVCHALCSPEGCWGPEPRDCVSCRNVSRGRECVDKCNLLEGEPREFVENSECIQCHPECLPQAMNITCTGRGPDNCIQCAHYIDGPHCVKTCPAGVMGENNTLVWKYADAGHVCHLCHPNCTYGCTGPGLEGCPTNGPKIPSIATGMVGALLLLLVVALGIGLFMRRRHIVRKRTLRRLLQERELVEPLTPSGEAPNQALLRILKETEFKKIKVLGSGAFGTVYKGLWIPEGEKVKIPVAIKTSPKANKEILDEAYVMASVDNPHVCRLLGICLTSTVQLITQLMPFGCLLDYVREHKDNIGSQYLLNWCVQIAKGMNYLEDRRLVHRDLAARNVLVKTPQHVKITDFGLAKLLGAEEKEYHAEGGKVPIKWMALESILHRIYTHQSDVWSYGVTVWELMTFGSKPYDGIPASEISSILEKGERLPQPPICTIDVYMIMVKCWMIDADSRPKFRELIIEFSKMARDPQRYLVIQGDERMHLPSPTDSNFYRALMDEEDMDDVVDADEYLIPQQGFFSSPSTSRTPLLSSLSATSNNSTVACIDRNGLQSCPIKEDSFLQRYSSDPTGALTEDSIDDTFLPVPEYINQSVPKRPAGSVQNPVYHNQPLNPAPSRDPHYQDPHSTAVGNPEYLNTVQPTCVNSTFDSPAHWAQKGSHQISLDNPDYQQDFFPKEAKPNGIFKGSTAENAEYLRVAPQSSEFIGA
Chain of H1975 (EGFR L858/T790M) (P00533 25-1210 T790M/L858R): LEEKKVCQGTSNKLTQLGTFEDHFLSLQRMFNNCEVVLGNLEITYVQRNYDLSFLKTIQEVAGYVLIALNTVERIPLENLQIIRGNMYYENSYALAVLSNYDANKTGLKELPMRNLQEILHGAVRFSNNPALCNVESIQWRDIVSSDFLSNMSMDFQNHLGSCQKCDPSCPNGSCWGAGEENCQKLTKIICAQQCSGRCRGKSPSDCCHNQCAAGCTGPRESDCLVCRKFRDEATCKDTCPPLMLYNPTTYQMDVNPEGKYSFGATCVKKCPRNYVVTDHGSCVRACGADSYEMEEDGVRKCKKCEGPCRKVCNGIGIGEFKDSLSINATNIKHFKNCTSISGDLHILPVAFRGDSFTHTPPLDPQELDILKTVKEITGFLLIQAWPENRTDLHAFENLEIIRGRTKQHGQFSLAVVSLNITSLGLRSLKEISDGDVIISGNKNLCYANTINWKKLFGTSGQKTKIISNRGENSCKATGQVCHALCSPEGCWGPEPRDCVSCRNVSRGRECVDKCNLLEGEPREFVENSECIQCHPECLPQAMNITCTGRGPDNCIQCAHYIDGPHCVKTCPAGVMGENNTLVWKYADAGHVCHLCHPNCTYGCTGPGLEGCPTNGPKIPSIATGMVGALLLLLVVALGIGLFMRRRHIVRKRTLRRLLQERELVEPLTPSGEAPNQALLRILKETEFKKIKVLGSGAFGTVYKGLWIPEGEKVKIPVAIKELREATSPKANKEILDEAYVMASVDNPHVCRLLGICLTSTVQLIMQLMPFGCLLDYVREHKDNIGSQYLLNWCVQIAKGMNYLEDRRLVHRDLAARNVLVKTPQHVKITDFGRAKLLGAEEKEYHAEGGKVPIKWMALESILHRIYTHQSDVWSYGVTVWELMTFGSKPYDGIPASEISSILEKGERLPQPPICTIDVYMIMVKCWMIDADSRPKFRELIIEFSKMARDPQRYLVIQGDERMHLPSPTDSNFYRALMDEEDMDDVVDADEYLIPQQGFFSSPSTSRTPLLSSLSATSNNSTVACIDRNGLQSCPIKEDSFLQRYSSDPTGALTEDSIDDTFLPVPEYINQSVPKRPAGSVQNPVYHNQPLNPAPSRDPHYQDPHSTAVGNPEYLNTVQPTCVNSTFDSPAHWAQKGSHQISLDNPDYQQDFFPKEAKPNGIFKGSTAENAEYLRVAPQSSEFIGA
Chain of HaCaT (EGFR WT) (P00533 25-1210): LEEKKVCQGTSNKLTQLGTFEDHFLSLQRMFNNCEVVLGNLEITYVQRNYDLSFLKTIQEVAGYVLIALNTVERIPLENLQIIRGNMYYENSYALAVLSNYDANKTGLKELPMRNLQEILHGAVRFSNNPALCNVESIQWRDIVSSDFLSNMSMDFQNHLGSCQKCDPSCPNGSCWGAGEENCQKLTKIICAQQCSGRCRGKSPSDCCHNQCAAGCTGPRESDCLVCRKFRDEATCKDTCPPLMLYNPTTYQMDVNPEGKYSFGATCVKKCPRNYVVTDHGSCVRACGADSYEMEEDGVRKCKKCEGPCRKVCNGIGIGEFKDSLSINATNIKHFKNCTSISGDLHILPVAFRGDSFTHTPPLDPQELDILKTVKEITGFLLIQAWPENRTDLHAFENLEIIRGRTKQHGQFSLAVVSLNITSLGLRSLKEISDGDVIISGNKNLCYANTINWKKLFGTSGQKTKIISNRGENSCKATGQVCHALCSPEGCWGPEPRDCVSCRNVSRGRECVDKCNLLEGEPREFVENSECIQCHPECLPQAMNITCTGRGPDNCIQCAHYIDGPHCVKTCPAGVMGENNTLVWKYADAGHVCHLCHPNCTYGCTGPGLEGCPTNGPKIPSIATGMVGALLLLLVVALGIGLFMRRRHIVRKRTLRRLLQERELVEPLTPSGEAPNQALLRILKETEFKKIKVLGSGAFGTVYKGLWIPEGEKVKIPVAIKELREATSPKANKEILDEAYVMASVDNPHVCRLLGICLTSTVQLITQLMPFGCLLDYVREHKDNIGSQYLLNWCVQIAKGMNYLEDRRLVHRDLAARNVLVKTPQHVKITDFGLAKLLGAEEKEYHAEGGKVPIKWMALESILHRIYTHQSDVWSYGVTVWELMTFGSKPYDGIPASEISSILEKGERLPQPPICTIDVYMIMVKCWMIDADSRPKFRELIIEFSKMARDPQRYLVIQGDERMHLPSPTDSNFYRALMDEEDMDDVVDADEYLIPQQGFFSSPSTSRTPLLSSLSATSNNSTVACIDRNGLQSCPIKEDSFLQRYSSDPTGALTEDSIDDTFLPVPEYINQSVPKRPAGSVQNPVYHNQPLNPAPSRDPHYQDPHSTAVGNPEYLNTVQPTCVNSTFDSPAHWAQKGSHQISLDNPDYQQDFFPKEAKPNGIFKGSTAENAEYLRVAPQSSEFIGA
T1 sequence (P00533 669-1210 T790M/L858R): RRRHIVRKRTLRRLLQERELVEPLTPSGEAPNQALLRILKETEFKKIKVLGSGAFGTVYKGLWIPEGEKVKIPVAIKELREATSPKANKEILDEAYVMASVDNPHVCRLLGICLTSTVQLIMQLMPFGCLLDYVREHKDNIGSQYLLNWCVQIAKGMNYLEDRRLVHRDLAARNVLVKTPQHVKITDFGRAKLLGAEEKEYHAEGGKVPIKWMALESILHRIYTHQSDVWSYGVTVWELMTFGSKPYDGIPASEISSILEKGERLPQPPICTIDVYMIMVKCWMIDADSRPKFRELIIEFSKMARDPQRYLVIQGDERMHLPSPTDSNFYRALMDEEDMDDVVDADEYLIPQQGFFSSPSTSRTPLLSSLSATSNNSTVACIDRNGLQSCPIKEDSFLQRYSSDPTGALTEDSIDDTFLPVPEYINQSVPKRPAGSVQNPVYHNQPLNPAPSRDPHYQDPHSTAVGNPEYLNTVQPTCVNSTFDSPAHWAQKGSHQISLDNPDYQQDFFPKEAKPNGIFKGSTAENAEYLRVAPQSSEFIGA

Usually IC50 stands for the point on the concentration scale where inhibition reaches its midpoint. Regarding `C=CC(=O)N1CCCC[C@@H](n2c(NC(=O)c3ccnc(C)c3)nc3ccc(OCCN4CCCC4)c(Cl)c32)C1` [Example 17-193], the IC50 was 1 nM in test [1]; 1 nM in test [2]; 2 nM in test [3]; below 0.001 µM in test [4] (setting [7]); 0.002 µM in test [4] (setting [8]); 44 nM in test [5].
As for `C=CC(=O)N1CCCC[C@@H](n2c(NC(=O)c3cc(C)nc(C)c3)nc3cc(CN4CCN(C)C(=O)C4)cc(C)c32)C1` [Example 17-180], the IC50 is 1 nM in test [1]; 1 nM in test [2]; 1 nM in test [3]; below 0.001 µM in test [4] (setting [7]); 0.003 µM in test [4] (setting [8]); 92 nM in test [5].
As to `C=CC(=O)N1CCCC[C@@H](n2c(NC(=O)c3cc(C)nc(C)c3)nc3ccc(OCCN4CCCC4)c(Cl)c32)C1` [Example 15, (R)—N-(1-(1-acryloylazepan-3-yl)-7-chloro-6-(2-(pyrrolidin-1-yl)ethoxy)-1H-benzo[d]imidazol-2-yl)-2,6-dimethylisonicotinamide], the IC50 was 1 nM in test [1]; 1 nM in test [2]; 3 nM in test [3]; below 0.001 µM in test [4] (setting [7]); 0.004 µM in test [4] (setting [8]); 139 nM in test [5].
For the compound `C/C=C/C(=O)N1CCCC[C@@H](n2c(NC(=O)c3cc(C)nc(C)c3)nc3ccc(OCCN4CCCC4)c(Cl)c32)C1` [Example 17-195], the IC50 amounted to 45 nM in test [1]; 36 nM in test [2]; 181 nM in test [3]; 0.007 µM in test [4] (setting [7]); 0.116 µM in test [4] (setting [8]); 7120 nM in test [5].
For the compound `Cc1cc(C(=O)Nc2nc3cccc(C(F)(F)F)c3n2[C@@H]2CCCCN(C(=O)/C=C/CN(C)C)C2)ccn1` [Example 17-187], the IC50 in test [1] amounted to 2 nM; in test [2] it was 13 nM; in test [3], 14 nM; in test [4] (setting [7]), 0.001 µM; in test [4] (setting [8]), 0.022 µM; in test [5], 475 nM.
In the case of `Cc1cc(C(=O)Nc2nc3cccc(C(F)(F)F)c3n2[C@@H]2CCCCN(C(=O)/C=C/CN(C)C)C2)cc(C)n1` [Example 17-188], the IC50 was 10 nM in test [1]; 16 nM in test [2]; 39 nM in test [3]; 0.003 µM in test [4] (setting [7]); 0.04 µM in test [4] (setting [8]); 870 nM in test [5].
With `CNC/C=C/C(=O)N1CCCC[C@@H](n2c(NC(=O)c3cc(C)nc(C)c3)nc3cccc(Cl)c32)C1` [Example 17-186], the IC50 in test [1] was 2 nM; in test [2], 2 nM; in test [6], 291 nM; in test [3] it was 10 nM; in test [4] (setting [7]), below 0.001 µM; in test [4] (setting [8]), 0.004 µM. In addition, the IC50 in test [5] is 213 nM.
On to `C/C=C/C(=O)N1CCCC[C@@H](n2c(NC(=O)c3ccnc(C)c3)nc3ccc(OCCN4CCCC4)c(Cl)c32)C1` [Example 17-194], for which the IC50 in test [1] was found to be 16 nM; in test [2], 41 nM; in test [3] it was 67 nM; in test [4] (setting [7]), 0.006 µM; in test [4] (setting [8]), 0.068 µM; in test [5], 576 nM.
`CNC/C=C/C(=O)N1CCCC[C@@H](n2c(NC(=O)c3ccnc(C)c3)nc3cccc(Cl)c32)C1` [Example 17-185]: the IC50 in test [1] was 1 nM; in test [2], 1 nM; in test [6], 44 nM; in test [3], 2 nM; in test [4] (setting [7]), below 0.001 µM; in test [4] (setting [8]), 0.002 µM. For the same compound, in test [5], the IC50 came out at 44 nM.
In the case of `C=CC(=O)N1CCCC[C@@H](n2c(NC(=O)c3cc(C)nc(C)c3)nc3cc(CN4CCN(C(C)=O)CC4)cc(C)c32)C1` [Example 17-181], the IC50 in test [1] is 1 nM; in test [2], 1 nM; in test [3], 1 nM; in test [4] (setting [7]), below 0.001 µM; in test [4] (setting [8]), 0.003 µM; in test [5] it was 77 nM.

(Values after patent publication US9440957B2, “Compounds and compositions for modulating EGFR Activity” (Novartis AG, priority 2012, dated 2016).)
